Assay [1] has as its system Streptococcus sp. 'group A'. Description: growth inhibition of control SK(-) GAS strain, dose response, counter-screen for streptokinase expression inhibitor project, luminescence, kanamycin, BacTiterGlo, confirmation (AID 1900). It counts as functional, organism-based.
Assay [2] can be described thus: inhibitors of intracellular T. cruzi replication, confirmation, NIH3T3 host cells, beta-gal luminescence (AID 2044).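 Further: intracellular parasites grown in NIH/3T3 mouse fibroblasts as host cells; luminescent beta-galactosidase reporter signal from transgenic T. cruzi replicating inside host cells; inhibitors lower the luminescence signal.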 It counts as functional, cell-based.
Assay [3] is described as follows: cytotoxicity toward NIH3T3 fibroblasts, dose response, counter-screen, cell-based, ATP luminescence, mouse fibroblasts (AID 2010).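 Further: cells exposed to compound for about 90 hours before reading.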 It counts as functional. (In general: A counterscreen serves to expose hits that act by an unwanted route or on another target.)
Assay [4] deals with Streptococcus. Description: Group A Streptococcus viability loss, dose response, counter-screen for streptokinase expression inhibitor project, luminescence, BacTiterGlo (AID 1915).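 Further: potency for reduction of bacterial viability or growth.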 It counts as functional, organism-based.
For assay [5], the system named is Vero. Description: cells. It counts as functional. Conditions: Chlorocebus sabaeus.
Assay [6] addresses T1, Carboxy-terminal domain RNA polymerase II polypeptide A small phosphatase 1 (Homo sapiens, UniProt Q9GZU7).
T1 sequence (Q9GZU7 whole entry): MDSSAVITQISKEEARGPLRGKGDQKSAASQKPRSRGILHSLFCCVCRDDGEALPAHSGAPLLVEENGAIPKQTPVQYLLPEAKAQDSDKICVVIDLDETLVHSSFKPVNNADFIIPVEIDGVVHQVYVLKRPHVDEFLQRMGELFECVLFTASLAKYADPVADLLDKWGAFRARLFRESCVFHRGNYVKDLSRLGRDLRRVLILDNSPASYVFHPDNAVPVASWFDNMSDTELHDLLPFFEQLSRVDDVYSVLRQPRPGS
Description: inhibitors of CTDSP1, concentration-response testing, biochemical assay, absorbance-based, actives from ultra-high-throughput screening (AID 540297). It counts as functional.

The nature of assay [7]: inhibitors of firefly luciferase expression or activity, dose response, H4 neuroglioma cells, luminescence (AID 1990). It counts as functional, cell-based.
The nature of assay [8]: Luminescence Cell-Based Dose Response HTS to Identify Inhibitors of 5'UTR Stem-Loop Driven Prion Protein mRNA Translation in H4 Neuroglioblastoma Cells. [Related pubchem assays: 1827 (Project Summary), 1813 (Primary HTS)]. It counts as functional.
A short description of assay [9]: inhibitors of SNCA 5'UTR-driven reporter translation, confirmation, H4 neuroglioma cells, luminescence (AID 1988). It counts as functional, cell-based.
For assay [10], the target named is T2, Replicative DNA helicase DnaB (Mycobacterium tuberculosis, UniProt P9WMR3).
T2 sequence (P9WMR3 whole entry): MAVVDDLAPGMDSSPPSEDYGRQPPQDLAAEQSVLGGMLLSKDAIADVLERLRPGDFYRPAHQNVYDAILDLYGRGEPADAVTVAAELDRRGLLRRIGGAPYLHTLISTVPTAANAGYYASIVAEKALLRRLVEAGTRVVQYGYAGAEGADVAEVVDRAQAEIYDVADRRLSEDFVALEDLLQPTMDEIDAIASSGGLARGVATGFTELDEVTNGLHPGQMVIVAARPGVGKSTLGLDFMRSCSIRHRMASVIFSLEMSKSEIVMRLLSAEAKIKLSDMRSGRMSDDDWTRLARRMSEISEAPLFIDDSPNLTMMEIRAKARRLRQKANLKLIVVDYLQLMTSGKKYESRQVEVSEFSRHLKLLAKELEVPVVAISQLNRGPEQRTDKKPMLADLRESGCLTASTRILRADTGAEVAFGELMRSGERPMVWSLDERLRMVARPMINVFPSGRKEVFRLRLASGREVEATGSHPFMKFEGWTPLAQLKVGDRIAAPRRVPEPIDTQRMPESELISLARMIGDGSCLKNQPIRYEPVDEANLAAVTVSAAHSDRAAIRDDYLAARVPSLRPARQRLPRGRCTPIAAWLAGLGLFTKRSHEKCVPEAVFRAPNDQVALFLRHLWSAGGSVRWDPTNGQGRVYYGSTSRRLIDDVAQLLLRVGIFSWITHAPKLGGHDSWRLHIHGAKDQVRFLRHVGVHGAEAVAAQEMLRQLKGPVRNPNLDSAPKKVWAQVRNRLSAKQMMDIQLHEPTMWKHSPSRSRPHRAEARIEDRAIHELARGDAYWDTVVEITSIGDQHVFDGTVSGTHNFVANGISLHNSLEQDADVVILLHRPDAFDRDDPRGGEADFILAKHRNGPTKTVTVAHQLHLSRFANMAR
Description: DnaB intein splicing inhibitors, dose response, biochemical, cell-free fluorescence (AID 449749). It counts as functional.

Assay [11] concerns the target T3, Protein RecA (Mycobacterium tuberculosis, UniProt P9WHJ3).
T3 sequence (P9WHJ3 whole entry): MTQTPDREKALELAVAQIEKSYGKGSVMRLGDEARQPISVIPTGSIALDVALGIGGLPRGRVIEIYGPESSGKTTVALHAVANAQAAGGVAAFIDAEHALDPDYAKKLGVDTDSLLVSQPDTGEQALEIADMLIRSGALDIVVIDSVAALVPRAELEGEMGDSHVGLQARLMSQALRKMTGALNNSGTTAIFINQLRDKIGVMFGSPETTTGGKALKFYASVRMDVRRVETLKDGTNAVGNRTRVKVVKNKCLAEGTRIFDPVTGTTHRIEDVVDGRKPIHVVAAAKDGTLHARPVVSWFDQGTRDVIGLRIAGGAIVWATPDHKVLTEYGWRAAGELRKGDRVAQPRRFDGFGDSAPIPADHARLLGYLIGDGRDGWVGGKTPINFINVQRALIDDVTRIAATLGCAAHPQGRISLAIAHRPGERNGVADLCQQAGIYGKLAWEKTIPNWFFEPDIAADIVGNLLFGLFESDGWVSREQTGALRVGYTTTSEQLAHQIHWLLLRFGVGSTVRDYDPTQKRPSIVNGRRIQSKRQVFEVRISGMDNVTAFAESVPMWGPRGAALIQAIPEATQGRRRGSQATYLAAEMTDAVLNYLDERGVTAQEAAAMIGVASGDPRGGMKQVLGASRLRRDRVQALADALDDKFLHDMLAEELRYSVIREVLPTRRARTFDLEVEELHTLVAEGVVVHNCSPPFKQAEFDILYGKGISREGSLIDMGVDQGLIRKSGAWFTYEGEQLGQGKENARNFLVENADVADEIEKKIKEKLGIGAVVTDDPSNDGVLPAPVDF
Description: Fluorescence Cell-Free Homogeneous Dose Retest to Identify Inhibitors of RecA-Intein Splicing Activity. [Related pubchem assays (depositor defined):AID2097, AID2223, AID489010, AID492950]. It counts as functional.

In assay [12] the target is Genome polyprotein (dengue virus type 2, UniProt P29990). Description: Dengue-2 NS5 methyltransferase inhibitors, primary screen, biochemical, confirmation dose response (AID 588689). It counts as functional.
Assay [13] addresses T4, Protein skinhead-1 (Caenorhabditis elegans, UniProt P34707).
T4 sequence (P34707 whole entry): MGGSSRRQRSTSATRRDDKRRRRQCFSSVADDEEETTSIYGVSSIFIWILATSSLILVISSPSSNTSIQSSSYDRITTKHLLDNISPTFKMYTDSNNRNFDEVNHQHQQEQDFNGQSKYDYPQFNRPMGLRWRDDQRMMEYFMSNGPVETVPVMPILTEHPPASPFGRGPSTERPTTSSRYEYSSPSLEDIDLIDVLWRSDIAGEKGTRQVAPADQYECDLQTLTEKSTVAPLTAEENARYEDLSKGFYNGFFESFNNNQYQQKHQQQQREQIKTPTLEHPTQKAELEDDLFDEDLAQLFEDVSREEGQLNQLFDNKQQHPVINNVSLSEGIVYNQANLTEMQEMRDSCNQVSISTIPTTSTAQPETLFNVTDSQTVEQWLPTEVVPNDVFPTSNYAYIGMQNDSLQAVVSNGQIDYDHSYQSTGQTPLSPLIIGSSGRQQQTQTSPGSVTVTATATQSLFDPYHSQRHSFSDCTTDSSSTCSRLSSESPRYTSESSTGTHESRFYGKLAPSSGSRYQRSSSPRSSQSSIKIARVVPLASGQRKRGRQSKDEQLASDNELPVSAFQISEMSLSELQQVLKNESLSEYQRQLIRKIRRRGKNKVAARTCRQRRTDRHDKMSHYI
It counts as functional.

In assay [14] the target is Cytochrome P450 3A4 (Homo sapiens, UniProt P08684).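 Further: CYP3A4 tested as one member of a cytochrome P450 panel screen.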
Assay [15] is described as follows: Luminescence Cell-Based Dose Response HTS to Identify Activators of Luciferase Translation or Activity in H4 […] Cells. [Related pubchem assays: 1829 (Project Summary), 1814 (Primary HTS)]. It counts as functional.

Usually EC50 stands for the concentration at which the effect is half-maximal. As usually defined, the CC50 is the concentration at which the toxic effect on the cells reaches its halfway point. The IC50 is the concentration needed to halve the response being measured. The term AC50 denotes the midpoint of the concentration-response curve, whichever way the signal moves.

Active and inactive are the calls of the source. For most assays here, no stated cut-off is given here; in the data, actives have a measured EC50 and inactives only a lower limit. Where only a bound is given, the exact number is not on record here.

Chain of Genome polyprotein (P29990 2492-3391 limits assumed): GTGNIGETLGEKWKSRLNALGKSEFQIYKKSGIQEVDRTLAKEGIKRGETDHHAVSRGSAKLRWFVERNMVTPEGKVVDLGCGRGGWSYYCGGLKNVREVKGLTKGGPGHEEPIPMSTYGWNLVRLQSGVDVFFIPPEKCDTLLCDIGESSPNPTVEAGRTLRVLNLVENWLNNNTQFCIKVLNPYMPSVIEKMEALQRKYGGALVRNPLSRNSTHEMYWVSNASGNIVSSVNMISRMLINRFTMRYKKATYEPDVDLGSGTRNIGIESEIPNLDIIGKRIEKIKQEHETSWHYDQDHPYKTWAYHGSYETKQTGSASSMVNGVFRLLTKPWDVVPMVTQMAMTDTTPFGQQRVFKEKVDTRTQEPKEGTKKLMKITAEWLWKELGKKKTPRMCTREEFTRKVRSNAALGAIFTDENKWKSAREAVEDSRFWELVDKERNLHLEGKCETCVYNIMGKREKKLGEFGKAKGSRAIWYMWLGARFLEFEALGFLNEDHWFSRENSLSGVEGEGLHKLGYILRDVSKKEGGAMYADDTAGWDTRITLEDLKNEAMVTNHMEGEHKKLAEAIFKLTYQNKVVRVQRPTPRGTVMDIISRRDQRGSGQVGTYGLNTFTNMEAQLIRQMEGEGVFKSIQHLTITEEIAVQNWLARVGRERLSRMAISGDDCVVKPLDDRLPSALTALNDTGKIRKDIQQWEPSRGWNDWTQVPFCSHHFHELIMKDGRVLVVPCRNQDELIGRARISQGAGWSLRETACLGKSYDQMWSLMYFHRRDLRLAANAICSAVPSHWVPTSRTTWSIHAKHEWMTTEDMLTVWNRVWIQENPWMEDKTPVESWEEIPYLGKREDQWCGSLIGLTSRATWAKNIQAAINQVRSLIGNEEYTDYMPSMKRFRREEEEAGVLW
Chain of Cytochrome P450 3A4 (P08684 whole entry): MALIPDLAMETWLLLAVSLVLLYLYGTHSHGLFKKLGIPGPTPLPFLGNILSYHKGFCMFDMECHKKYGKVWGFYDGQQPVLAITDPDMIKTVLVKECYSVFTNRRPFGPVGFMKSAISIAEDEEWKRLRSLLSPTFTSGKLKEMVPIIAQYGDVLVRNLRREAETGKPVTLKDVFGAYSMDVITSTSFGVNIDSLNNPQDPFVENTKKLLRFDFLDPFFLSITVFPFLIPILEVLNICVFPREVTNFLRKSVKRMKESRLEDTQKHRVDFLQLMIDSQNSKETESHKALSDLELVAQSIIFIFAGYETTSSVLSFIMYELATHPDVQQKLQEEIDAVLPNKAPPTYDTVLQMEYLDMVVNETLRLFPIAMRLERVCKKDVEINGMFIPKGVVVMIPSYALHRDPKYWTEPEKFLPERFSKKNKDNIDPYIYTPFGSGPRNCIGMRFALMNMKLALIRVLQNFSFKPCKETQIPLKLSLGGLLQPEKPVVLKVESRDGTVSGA

`COc1cc(/C=C/c2ccc3cccc(O)c3n2)c(Br)cc1O`: the EC50 is 0.865 µM (active) in assay [1], 3.92 µM (active) in [2], > 60 µM (not active) in assay [3] and 2.68 µM (active) in assay [4]. Besides, the CC50 in [5] is 8.46 µM (active).

For the molecule `CC1(C)C(=O)Nc2ccccc2N1C(=O)COc1ccccc1C#N`, the IC50 in assay [6] was 13.2 µM (active). Consider `Cn1/c(=N/C(=O)C2=NNC(=O)CC2)sc2ccccc21`, for which the EC50 in assay [7], in [8] and in assay [9] was > 120 µM (not active) each time. In the case of `O=C(CCN1C(=O)/C(=C\c2ccccc2F)SC1=S)Nc1ccc(C(=O)O)c(O)c1`, the half-maximal activity concentration (AC50) in [10] is 11.4 µM (active). Also, the concentration for a half-maximal effect (EC50) in [11] is 15.2 µM (active). Besides, in assay [12], the IC50 is 32.5 µM (active). On to `Cc1ccc(C=Cc2ccccn2)cc1`, for which, in [13], the IC50 was 33.9 µM (active). Consider `Cc1ccccc1NC(=O)C(=O)NNC(=O)COc1ccc2ccccc2c1`, for which the concentration for half-maximal inhibition (IC50) in assay [6] is 13.1 µM (active).

For `CC(=O)c1ccc(NC(=O)CN2C(=O)COc3ccc(S(=O)(=O)N4CCCC4)cc32)cc1`, in assay [6], the half-inhibitory concentration (IC50) is 6.65 µM (active). With `C=C(C)c1cccc(C(C)(C)NC(=O)N2CCN(c3ncccn3)CC2)c1`, the IC50 in [13] was > 100 µM (inactive). As for `CC(O)CC(=O)O` (stereo not drawn) [3-HYDROXYBUTYRIC ACID, (+/-)-], the IC50 in assay [13] is > 100 µM (inactive). Consider `O=C1c2ccccc2OC2(C=Cc3ccccc3O2)N1Cc1ccccc1` (stereo not given), for which, in [10], the AC50 is 2.83 µM (active). Besides, in assay [11], the EC50 was 166 µM (active). Moreover, in assay [13], the IC50 is > 100 µM (inactive). Take `Clc1nc(Cl)nc(-c2cn(-c3ccccc3)c3ccccc23)n1`: in [6], the IC50 is 7.98 µM (active). With `O=C(/C=C/c1ccccc1)Nc1ccc(CN2CCOCC2)cc1`, the half-maximal inhibitory concentration (IC50) in [13] was 11.4 µM (active). Consider `CCc1sc(/C=C(/C#N)C(N)=S)cc1[N+](=O)[O-]`, for which the IC50 in assay [12] is 33.9 µM (active).

On to `O=C1c2ccccc2C(=O)c2c(NCc3cccnc3)cccc21`, for which, in [13], the IC50 is > 100 µM (inactive). `Oc1nncc(NCCc2ccccc2)c1Cl`: the half-maximal effective concentration (EC50) in [7] was 6.91 µM (active); in [8] it was 25.9 µM (active); in [9], 14.2 µM (active). As to `CCOC(=O)C(C)C1(O)c2ccccc2-c2ncccc21` (stereo not given), in assay [13], the IC50 was > 100 µM (inactive). With `O=C(c1ccc(-c2cccc(C(F)(F)F)c2)o1)N1CCOCC1`, the IC50 in [13] was > 100 µM (inactive).

Turning to `O=C(Nc1ccc(Cl)cc1Cl)c1ccc(Br)o1`, the IC50 in assay [13] was > 100 µM (inactive). As to `Cc1cc(C)cc(NC(=S)N(Cc2ccc(Cl)cc2)Cc2ccc(C(=O)O)cc2)c1`, the IC50 in assay [12] was 92.1 µM (active). As to `Cc1cc2c(SCC(=O)Nc3cccc(O)c3)ncnc2s1`, the IC50 in assay [6] was 6.88 µM (active). As to `CC1CCCC(C)N1C(=O)COC(=O)/C=C/c1ccc(Br)o1` (stereo not given), the IC50 in assay [6] was 19.1 µM (active). With `COc1ccc(N2CCN(C(=O)C3CCCN3S(=O)(=O)c3cccc4nsnc34)CC2)cc1` (stereo not given), the EC50 in assay [7], in assay [8] and in assay [9] was > 120 µM (not active) throughout. Consider `COc1cc(/C=C2/C(=O)NN(c3ccc(C)c(Cl)c3)C2=O)cc([N+](=O)[O-])c1O`, for which, in [6], the IC50 is 6.75 µM (active).

For `COc1ccc(N2CCN(C(S)=Nc3cc(C)cc(C)c3)CC2)cc1`, the EC50 in assay [7], in assay [8] and in [9] was > 120 µM (not active) each time. Besides, the AC50 in [14] is 2.51 µM (inconclusive). In the case of `N#Cc1cnn2c1nc(N1CCCCC1)c1ccccc12`, the EC50 in assay [7] was 10.6 µM (active); in [8], 11.3 µM (active); in assay [9], 12.7 µM (active). With `COc1ccc(OCCn2cc(/C=C(\C#N)C(=O)NCc3ccco3)c3ccccc32)cc1`, the EC50 in assay [7] is 16.1 µM (active); in [8] it was 27.8 µM (active); in assay [9] it was 13.3 µM (active). As for `CCSc1nn2c(=O)c3ccccc3nc2s1`, the concentration giving a half-maximal response (EC50) in assay [15] is 0.23 µM (active).

Take `O=C(Nc1ccccc1)c1cc2ccccc2c(=O)s1`: in [15], the EC50 is 6.73 µM (active).

As to `Cc1cc(N)ccc1-n1nc2ccccc2n1`, the EC50 in assay [7] is 22.4 µM (active); in assay [8], 36.4 µM (active); in assay [9] it was 35.7 µM (active). In the same order, the values of `OCCN1CCN(CC/C=C2/c3ccccc3CSc3ccccc32)CC1` are > 120 µM (not active), > 120 µM (not active) and > 120 µM (not active).

(Values after ChEMBL document CHEMBL1201862, “PubChem BioAssay data set” (2004).)
